# Results published in patent US20240174718A1, “RYANODINE RECEPTOR INHIBITOR COMPOUNDS AND METHODS RELATING THERETO” (Vanderbilt University, priority 2022, published 2024).
# Read-outs that look alike come from different tables or passages of the source.
# Key:
# [1] = target: T1, RyR2 (Mus musculus, UniProt E9Q401); assay: Calcium spark frequency in permeabilized Casq2 knockout cardiomyocytes (screen for RyR2 activity); type: cell-based
# T1 construct: spontaneous openings of intracellular RyR2 Ca^2+ release channels; endogenous in cells; host or cells: ventricular cardiomyocytes isolated from Casq2-/- mice (saponin-permeabilized in A1, intact in A7)
# Procedure: FIGS. 3(A)-3(E) show a biological screen for cardiac ryanodine receptor (RyR2) activity. Note that ‘ent-24’=9, and ‘ent-18’ refers to structure 8 in FIG. 1, which is also the enantiomer of a natural product. (3A) Calcium spark frequency in permeabilized murine cardiomyocytes was recorded as an index of RyR2 activity. Compounds were screened at 25 uM concentration after 10-minute incubation. *=p<0.001 by one-way ANOVA with Tukey's post-hoc test. (3B) Incubation time was extended to 60 minutes for the 12- and 30-membered rings. (3C) The seco-acid precursors to 12- and 18-membered rings were tested at 25 uM. (3D) Concentration response curve for the 18-membered ring and (3E) 24-membered ring. Cells were incubated for 30 minutes
# Activity of Ring-Size Analogues. […] Ventricular cardiomyocytes were isolated, permeabilized with saponin, and incubated with vehicle (DMSO) or 25 μM of selected compound. RyR2 activity was measured in the form of calcium sparks, which are elementary Ca^2+ release events generated by spontaneous openings of intracellular RyR2 Ca^2+ release channels. Importantly, saponin selectively permeabilizes the sarcolemmal membrane, leaving the SR membrane intact and ensuring equivalent access of the compounds to the SR membrane where RyR2 resides.
# The compounds were first screened by incubating cardiomyocytes for 10 minutes at 25 μM concentration and compared to vehicle (DMSO) conditions.
# [2] = target: T2, RyR2 (Sus scrofa, UniProt A0A5G2R1W3); settings: read-out: IC50, ryanodine binding assay (ent-1 comparison); cited from earlier work
# T2 construct: isolated SR vesicles derived from porcine cardiac muscle; from tissue; host or cells: porcine heart (cardiac sarcoplasmic reticulum vesicles)
# [3] = cited from earlier work
# [4] = system: Casq2-/- mice; settings: cited from earlier work
# [5] = target: T1, RyR2; settings: read-out: IC50, intact cardiomyocyte assay (ent-1 comparison); cited from earlier work
# [6] = system: mammalian cardiac ryanodine receptor (RyR2); settings: cited from earlier work
# T1 sequence (E9Q401 whole entry): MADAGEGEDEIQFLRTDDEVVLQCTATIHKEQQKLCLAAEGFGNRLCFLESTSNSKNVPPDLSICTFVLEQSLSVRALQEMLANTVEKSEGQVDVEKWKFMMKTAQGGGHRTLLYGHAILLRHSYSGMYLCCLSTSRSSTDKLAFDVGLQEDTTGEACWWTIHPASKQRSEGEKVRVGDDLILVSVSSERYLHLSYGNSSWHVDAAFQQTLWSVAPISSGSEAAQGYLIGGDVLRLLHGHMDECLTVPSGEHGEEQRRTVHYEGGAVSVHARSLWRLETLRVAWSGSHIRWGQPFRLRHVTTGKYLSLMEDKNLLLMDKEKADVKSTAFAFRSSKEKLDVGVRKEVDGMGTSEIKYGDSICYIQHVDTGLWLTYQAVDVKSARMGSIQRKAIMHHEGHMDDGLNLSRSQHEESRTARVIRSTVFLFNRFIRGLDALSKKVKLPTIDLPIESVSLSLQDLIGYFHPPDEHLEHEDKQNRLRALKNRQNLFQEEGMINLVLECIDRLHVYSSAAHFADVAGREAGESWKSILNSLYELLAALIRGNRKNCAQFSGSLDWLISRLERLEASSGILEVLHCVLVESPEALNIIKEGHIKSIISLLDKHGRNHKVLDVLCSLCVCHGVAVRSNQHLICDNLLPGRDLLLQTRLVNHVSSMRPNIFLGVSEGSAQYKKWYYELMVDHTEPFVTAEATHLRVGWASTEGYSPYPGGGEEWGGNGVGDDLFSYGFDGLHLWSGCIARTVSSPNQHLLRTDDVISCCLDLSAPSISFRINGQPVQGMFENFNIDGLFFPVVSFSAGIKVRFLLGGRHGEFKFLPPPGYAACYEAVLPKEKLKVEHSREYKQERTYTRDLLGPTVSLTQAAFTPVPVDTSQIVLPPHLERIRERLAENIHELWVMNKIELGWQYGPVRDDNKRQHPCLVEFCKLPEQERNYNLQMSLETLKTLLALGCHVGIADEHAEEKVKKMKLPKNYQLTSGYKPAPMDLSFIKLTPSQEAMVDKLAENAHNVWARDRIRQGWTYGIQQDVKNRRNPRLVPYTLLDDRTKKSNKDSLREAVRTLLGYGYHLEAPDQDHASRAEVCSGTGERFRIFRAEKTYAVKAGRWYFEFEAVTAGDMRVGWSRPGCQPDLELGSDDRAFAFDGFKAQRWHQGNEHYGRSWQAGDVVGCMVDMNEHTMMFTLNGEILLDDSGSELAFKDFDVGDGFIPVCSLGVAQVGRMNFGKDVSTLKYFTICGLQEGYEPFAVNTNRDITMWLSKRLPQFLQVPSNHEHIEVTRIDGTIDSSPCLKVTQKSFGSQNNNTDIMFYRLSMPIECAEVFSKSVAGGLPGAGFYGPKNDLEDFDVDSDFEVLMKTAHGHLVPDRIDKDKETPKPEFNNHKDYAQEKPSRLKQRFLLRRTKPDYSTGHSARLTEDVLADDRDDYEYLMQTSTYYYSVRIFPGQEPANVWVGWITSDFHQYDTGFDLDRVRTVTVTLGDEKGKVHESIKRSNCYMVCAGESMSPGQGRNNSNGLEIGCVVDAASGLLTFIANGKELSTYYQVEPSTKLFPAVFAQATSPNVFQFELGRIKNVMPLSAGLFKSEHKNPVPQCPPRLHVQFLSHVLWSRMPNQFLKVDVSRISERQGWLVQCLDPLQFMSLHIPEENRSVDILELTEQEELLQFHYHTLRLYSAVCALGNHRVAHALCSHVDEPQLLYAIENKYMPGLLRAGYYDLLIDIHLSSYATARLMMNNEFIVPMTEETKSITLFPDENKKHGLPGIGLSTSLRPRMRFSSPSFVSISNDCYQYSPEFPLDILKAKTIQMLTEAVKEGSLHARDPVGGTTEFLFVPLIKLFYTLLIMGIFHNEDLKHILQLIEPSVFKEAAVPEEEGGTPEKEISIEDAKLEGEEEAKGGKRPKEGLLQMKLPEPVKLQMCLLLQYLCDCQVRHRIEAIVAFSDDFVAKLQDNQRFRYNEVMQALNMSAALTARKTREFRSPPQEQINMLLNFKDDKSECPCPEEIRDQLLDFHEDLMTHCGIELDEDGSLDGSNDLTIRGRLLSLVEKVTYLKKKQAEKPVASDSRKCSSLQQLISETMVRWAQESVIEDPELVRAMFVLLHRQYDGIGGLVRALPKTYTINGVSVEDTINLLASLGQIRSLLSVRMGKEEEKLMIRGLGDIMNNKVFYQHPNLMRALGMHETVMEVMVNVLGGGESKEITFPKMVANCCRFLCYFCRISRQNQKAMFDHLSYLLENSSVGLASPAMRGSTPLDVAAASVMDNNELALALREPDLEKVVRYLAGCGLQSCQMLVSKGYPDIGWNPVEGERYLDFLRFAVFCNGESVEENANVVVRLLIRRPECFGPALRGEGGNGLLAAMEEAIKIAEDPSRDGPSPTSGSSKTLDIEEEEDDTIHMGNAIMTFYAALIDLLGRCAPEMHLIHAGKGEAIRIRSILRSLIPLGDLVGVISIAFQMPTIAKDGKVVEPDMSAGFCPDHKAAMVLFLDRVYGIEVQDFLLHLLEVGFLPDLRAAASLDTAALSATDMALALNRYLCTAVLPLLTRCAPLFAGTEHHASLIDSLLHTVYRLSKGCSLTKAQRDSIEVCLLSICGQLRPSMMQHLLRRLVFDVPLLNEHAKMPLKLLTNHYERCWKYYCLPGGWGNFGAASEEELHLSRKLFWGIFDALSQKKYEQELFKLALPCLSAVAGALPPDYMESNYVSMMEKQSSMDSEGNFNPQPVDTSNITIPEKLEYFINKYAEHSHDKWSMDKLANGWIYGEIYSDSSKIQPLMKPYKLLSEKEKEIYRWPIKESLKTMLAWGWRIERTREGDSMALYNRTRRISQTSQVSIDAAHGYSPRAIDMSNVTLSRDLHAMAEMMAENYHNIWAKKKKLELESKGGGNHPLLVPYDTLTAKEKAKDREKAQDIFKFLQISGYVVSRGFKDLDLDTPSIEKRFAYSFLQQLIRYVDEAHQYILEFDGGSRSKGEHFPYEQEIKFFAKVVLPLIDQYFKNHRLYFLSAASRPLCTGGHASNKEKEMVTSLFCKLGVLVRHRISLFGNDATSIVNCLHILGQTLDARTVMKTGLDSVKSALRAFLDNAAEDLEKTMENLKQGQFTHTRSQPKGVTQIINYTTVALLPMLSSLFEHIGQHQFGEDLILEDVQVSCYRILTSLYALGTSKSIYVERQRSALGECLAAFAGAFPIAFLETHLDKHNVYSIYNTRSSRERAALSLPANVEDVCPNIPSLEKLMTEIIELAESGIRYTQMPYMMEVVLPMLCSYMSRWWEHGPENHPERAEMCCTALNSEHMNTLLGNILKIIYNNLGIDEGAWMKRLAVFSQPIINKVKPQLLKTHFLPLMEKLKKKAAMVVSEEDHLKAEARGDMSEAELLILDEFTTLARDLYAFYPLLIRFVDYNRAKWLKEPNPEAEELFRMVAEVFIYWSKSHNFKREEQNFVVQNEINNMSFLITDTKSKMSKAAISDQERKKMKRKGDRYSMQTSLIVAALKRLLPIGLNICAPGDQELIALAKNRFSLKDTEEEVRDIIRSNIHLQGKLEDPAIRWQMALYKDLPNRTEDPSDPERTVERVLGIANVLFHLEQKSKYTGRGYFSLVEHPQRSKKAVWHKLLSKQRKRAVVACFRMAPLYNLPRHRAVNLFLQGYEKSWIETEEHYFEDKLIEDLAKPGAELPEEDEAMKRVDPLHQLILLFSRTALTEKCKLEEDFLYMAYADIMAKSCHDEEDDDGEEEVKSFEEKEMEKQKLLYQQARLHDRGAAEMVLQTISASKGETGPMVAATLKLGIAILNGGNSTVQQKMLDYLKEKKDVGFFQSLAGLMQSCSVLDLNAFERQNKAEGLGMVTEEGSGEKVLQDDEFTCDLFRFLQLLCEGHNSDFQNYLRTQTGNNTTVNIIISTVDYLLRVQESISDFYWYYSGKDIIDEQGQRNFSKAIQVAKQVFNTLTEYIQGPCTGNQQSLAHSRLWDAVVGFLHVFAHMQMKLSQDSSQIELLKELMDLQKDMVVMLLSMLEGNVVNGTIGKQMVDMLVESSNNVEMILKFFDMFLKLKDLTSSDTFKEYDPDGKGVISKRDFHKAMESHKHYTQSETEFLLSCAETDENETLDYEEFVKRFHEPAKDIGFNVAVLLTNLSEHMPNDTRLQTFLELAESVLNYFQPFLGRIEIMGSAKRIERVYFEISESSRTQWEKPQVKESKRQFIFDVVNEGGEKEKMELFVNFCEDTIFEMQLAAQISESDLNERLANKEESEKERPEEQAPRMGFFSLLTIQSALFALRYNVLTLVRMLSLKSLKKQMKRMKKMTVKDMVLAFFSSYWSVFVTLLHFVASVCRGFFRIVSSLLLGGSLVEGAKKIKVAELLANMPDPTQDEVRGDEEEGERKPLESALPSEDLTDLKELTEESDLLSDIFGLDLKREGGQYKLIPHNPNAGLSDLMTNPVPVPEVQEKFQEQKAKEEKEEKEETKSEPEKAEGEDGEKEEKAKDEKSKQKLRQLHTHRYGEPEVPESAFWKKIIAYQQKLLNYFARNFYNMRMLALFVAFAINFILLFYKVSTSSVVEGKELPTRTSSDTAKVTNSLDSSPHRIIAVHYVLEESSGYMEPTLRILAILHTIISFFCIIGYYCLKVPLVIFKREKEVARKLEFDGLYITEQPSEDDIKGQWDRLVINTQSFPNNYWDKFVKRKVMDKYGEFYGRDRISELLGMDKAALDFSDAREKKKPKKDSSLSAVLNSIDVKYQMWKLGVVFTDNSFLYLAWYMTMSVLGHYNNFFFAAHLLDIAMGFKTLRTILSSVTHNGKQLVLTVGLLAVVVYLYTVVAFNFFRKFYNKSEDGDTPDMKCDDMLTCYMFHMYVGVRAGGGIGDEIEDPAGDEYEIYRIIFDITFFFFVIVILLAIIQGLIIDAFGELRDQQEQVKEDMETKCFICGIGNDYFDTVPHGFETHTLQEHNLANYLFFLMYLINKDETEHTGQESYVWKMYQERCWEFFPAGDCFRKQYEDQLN
Substance,"RyR2-mediated Ca2+ spark frequency ([1]; 25 μM, 10 minutes incubation, vs vehicle (DMSO))",IC50 [2] [nM],half-life of ent-1 ([3]; 3 mg/kg dose) [h],half-life of ent-1 ([3]; 30 mg/kg dose) [h],t1/2 of ent-1 ([3]; mice) [h],"reduction in ventricular ectopy burden (ent-1) ([4]; 30 mg/kg, same arrhythmia induction protocol) [%]","antiarrhythmic efficacy in vivo (ent-1) ([4]; single dose study, 3 and 30 mg/kg i.p., Casq2-/- mice)",IC50 [5] [nM],RyR2-mediated spontaneous calcium release [6],potency of inhibition of mammalian cardiac ryanodine receptor calcium release channels [6],activity in the calcium spark assay (summary statement) [1]
(+)-ent-verticilide [ent-1],significantly inhibited,100,6.9,6.4,6.92,70,antiarrhythmic efficacy,90,significantly reduced,sub-micromolar potency,
(−)-nat-verticilide [reference compound],,,,,,,,,no effect,,none of these were active
